According to paper PMC3918950 (Experimental eye research, 2013):

How the values were obtained:
MDR1 [1] = target: T1, MDR1 (Homo sapiens, UniProt P08183); test: Bi-directional transport of [14C]-erythromycin across MDCK-MDR1 cells; type: in vitro ADME; conditions: MDCK-MDR1, pH 7.4
MRP2 [2] = target: T2, MRP2 (Homo sapiens, UniProt Q92887); test: Bi-directional transport of [14C]-erythromycin across MDCK-MRP2 cells; type: in vitro ADME; conditions: pH 7.4
MRP2 [3] = target: T2, MRP2; conditions: MDCK-MRP2; [14C]-erythromycin 0.25 µCi/mL; 30 min; in presence of MK571 50 µM
IL-6 = test: Pro-inflammatory cytokines assay, IL-6 release; type: cell-based, human; conditions: 48 h; for Reduction of IL-6 release in presence of moxifloxacin: moxifloxacin 500 µM
Y-79 cells = test: Anti-proliferative activity; type: cell-based, human; conditions: for IC50: Homo sapiens, Y79, read-out: IC50 against retinoblastoma cells; for Reduction of IC50 value in the presence of moxifloxacin: Y-79, MTT, moxifloxacin 500 µM
MRP2 [4] = target: T2, MRP2; test: in vitro; conditions: dog
MDR1 [5] = target: T1, MDR1; test: in vitro; conditions: MDCK-MDR1
IL-8 = test: Pro-inflammatory cytokines assay, IL-8 release; type: cell-based, human; conditions: 48 h; for Reduction of IL-8 release in presence of moxifloxacin: moxifloxacin 500 µM
MDR1 [6] = target: T1, MDR1; test: Bidirectional transport of anticancer agents across MDCK-MDR1 cells; conditions: moxifloxacin 500 µM
MRP2 [7] = target: T2, MRP2; test: Bidirectional transport of anticancer agents across MDCK-MRP2 cells; conditions: moxifloxacin 500 µM
MDR1 [8] = target: T1, MDR1
MRP2 [9] = target: T2, MRP2; test: Bi-directional transport of moxifloxacin across MDCK-MRP2 cells; type: in vitro ADME
in vitro = conditions: dog, MDCK, pH 7.4
MDR1 [10] = target: T1, MDR1; test: in vitro; conditions: MDCK-MDR1, pH 7.4
MRP2 [11] = target: T2, MRP2; test: cell-based
caspase-3 [12] = test: Caspase-3 assay in Y-79 cells; type: cell-based, human
MDR1 [13] = target: T1, MDR1; test: cell-based
caspase-3 [14] = conditions: read-out: Km (caspase-3 substrate); ref Anaspec, San Jose, CA; cited from earlier work
[15] = conclusion from uptake and bi-directional transport

T2 sequence (Q92887 whole entry): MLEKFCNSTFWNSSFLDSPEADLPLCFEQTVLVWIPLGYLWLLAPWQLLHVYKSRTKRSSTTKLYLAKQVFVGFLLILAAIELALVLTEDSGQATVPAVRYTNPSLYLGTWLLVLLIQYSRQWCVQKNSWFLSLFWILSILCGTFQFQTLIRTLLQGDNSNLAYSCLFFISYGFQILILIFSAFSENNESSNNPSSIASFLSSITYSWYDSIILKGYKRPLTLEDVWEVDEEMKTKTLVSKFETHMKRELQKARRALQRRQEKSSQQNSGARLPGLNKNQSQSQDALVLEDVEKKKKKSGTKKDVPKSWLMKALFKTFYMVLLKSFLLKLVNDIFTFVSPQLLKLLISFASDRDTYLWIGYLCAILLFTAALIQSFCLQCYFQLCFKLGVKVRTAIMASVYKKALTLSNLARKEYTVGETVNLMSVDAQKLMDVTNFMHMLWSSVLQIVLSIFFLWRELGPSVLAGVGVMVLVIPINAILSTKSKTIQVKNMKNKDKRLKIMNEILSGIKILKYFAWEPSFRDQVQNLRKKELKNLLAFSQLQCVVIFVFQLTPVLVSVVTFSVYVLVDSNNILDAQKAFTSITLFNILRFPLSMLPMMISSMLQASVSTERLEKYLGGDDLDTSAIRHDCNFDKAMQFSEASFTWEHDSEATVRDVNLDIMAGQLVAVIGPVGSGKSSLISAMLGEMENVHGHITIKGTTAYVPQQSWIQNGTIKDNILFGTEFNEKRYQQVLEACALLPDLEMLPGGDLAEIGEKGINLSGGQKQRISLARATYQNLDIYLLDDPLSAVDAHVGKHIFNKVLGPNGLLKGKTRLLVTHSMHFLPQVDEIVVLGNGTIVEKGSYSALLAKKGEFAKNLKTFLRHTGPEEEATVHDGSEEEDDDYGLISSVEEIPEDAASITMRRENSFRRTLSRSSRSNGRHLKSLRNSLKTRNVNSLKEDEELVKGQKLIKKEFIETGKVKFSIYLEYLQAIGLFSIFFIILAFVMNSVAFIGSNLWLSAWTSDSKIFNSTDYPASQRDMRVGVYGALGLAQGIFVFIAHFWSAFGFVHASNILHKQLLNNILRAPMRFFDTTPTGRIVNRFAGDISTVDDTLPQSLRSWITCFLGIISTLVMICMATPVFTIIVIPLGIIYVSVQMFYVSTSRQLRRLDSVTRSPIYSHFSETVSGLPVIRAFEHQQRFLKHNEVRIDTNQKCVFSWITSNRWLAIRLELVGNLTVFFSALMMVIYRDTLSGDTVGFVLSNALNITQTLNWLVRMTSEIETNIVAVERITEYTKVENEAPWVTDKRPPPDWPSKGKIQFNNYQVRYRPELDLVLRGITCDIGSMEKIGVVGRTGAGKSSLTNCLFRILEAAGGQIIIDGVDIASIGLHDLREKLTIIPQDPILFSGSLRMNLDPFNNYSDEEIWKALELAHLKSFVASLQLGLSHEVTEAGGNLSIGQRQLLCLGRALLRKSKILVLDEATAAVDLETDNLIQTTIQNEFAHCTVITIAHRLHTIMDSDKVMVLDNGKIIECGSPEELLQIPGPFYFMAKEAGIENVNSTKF
T1 sequence (P08183 whole entry): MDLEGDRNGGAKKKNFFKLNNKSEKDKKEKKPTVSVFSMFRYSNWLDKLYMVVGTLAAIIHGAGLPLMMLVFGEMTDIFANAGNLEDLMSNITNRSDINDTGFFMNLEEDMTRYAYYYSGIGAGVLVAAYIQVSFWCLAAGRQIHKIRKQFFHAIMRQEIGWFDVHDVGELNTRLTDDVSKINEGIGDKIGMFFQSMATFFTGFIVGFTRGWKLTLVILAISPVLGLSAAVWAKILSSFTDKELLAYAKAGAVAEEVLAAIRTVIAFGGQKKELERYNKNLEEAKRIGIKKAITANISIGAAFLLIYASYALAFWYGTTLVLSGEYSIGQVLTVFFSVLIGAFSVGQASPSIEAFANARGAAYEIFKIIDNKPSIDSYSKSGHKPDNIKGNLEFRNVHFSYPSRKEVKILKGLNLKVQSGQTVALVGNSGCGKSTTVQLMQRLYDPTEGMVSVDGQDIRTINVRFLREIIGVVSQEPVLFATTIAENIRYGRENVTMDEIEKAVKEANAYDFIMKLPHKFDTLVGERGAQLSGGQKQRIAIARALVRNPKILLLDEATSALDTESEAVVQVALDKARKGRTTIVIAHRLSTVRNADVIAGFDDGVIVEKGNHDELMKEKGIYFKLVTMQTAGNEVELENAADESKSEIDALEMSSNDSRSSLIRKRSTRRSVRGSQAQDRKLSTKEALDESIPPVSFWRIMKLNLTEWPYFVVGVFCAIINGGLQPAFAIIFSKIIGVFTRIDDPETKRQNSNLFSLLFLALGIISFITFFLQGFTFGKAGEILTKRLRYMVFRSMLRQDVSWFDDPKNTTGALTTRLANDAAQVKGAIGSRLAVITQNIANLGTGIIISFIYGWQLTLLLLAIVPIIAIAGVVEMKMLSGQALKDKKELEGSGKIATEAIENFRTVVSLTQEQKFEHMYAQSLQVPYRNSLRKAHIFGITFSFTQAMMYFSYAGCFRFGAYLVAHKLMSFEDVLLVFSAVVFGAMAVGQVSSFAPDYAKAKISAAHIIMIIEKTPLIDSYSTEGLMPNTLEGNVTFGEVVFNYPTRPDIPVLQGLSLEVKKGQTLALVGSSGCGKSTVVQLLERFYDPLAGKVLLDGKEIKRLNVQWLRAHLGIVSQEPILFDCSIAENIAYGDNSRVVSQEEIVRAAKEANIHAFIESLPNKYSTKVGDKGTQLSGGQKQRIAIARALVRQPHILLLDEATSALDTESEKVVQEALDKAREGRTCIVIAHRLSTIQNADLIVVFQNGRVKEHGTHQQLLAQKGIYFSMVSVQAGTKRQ

Row | Papp A→B at 0.5 µCi/mL (MRP2 [4]) [×10⁻⁶ cm/s] | Papp B→A at 0.5 µCi/mL (MRP2 [4]) [×10⁻⁶ cm/s] | Papp A→B at 0.5 µCi/mL (MDR1 [5]) [×10⁻⁶ cm/s] | Papp B→A at 0.5 µCi/mL (MDR1 [5]) [×10⁻⁶ cm/s] | Compound | Release of IL-6 (IL-6; anticancer agent 0.5 µg alone) [pg/mL] | Reduction of IL-6 release in presence of moxifloxacin (IL-6; anticancer agent 0.5 µg) [fold] | Release of IL-6 (IL-6; anticancer agent 1.0 µg alone) [pg/mL] | Reduction of IL-6 release in presence of moxifloxacin (IL-6; anticancer agent 1.0 µg) [fold] | IC50 (Y-79 cells) [µM] | Reduction of IC50 value in the presence of moxifloxacin (Y-79 cells) [fold] | Release of IL-8 (IL-8; anticancer agent 0.5 µg alone) [pg/mL] | Reduction of IL-8 release in presence of moxifloxacin (IL-8; anticancer agent 0.5 µg) [fold] | Release of IL-8 (IL-8; anticancer agent 1.0 µg alone) [pg/mL] | Reduction of IL-8 release in presence of moxifloxacin (IL-8; anticancer agent 1.0 µg) [fold] | also measured
1 |  |  |  |  | CC[C@H]1OC(=O)[C@H](C)[C@@H](O[C@H]2C[C@@](C)(OC)[C@@H](O)[C@H](C)O2)[C@H](C)[C@@H](O[C@@H]2O[C@H](C)C[C@H](N(C)C)[C@H]2O)[C@](C)(O)C[C@@H](C)C(=O)[C@H](C)[C@@H](O)[C@]1(C)O [[^14C]-erythromycin, Erythromycin] |  |  |  |  |  |  |  |  |  |  | Papp A→B at 3 h, 0.5 µCi/mL (MDR1 [1]): 5.44 ± 0.52 ×10⁻⁶ cm/s; Papp B→A at 3 h, 0.5 µCi/mL (MDR1 [1]): 18.8 ± 1.05 ×10⁻⁶ cm/s; Papp B→A at 3 h, 0.5 µCi/mL (MRP2 [2]): 2.7 ± 0.18 ×10⁻⁶ cm/s
2 |  |  |  |  | CN(C)C(=O)CCSC(SCCC(=O)O)c1cccc(/C=C/c2ccc3ccc(Cl)cc3n2)c1 (centres unmarked) [MK571] |  |  |  |  |  |  |  |  |  |  | Cellular accumulation of [14C]-erythromycin relative to control (MRP2 [3]): 273%
3 | 37.8 ± 2.7 | 207 ± 17.4 | 3.57 ± 0.65 | 11.6 ± 1.78 | COc1cc([C@@H]2c3cc4c(cc3[C@@H](O[C@@H]3O[C@@H]5CO[C@@H](C)O[C@H]5[C@H](O)[C@H]3O)[C@H]3COC(=O)[C@H]23)OCO4)cc(OC)c1O [Etoposide] | 105.20 ± 3.90 | 1.3 | 151.40 ± 10.00 | 1.4 | 27.1 | 13 | 191.90 ± 9.10 | 1.60 | 286.60 ± 16.60 | 1.28 | 
4 | 13.5 ± 3.24 | 73.8 ± 8.16 | 1.55 ± 0.03 | 10.2 ± 0.47 | CC[C@]1(O)C[C@@H]2CN(CCc3c([nH]c4ccccc34)[C@@](C(=O)OC)(c3cc4c(cc3OC)N(C)[C@H]3[C@@](O)(C(=O)OC)[C@H](OC(C)=O)[C@]5(CC)C=CCN6CC[C@]43[C@@H]65)C2)C1 [Vinblastine] | 52.90 ± 4.30 | 1.11 | 73.60 ± 2.30 | 1.42 | 0.0519 | 2 | 140.20 ± 14.40 | 1.40 | 284.90 ± 18.00 | 1.08 | Elevation of AP-BL permeability by moxifloxacin (MDR1 [6]): 2.55 fold
5 | 8.06 ± 0.66 | 24.8 ± 2.44 | 0.75 ± 0.03 | 3.5 ± 0.28 | CC[C@@]1(O)C(=O)OCc2c1cc1n(c2=O)Cc2cc3c(CN(C)C)c(O)ccc3nc2-1 [Topotecan] | 156.90 ± 2.70 | 1.3 | 157.50 ± 8.80 | 1.2 | 27.9 | 10 | 157.70 ± 12.60 | 1.48 | 239.20 ± 13.90 | 1.30 | Elevation of AP-BL permeability by moxifloxacin (MDR1 [6]): 2.08 fold; Elevation of AP-BL permeability by moxifloxacin (MRP2 [7]): 1.57 fold; efflux ratio at 0.5 µCi/mL (MRP2 [4]): 3.07; efflux ratio at 0.5 µCi/mL (MDR1 [5]): 4.63
6 |  |  |  |  | COc1c(N2C[C@@H]3CCCN[C@@H]3C2)c(F)cc2c(=O)c(C(=O)O)cn(C3CC3)c12 [Moxifloxacin] |  |  |  |  |  |  |  |  |  |  | Increase of AP-BL permeability of moxifloxacin (MDR1 [8]; MDCK-MDR1, in presence of GF120918): 2.80 times; Substrate of MDR1 efflux transporter (MDR1 [8]; [15]): substrate; Increase of AP-BL permeability of moxifloxacin (MRP2 [9]; MDCK-MRP2, in presence of MK571): 2.10 times; Substrate of MRP2 efflux transporter (MRP2 [9]; [15]): substrate; Papp A→B at 500 µM (MRP2 [9]; human, pH 7.4): 0.78 ± 0.13 ×10⁻⁶ cm/s; Papp B→A at 500 µM (MRP2 [9]; human, pH 7.4): 1.97 ± 0.41 ×10⁻⁶ cm/s; Papp A→B at 500 µM (in vitro): 5.7 ± 0.04 ×10⁻⁶ cm/s; Papp B→A at 500 µM (in vitro): 7.4 ± 0.14 ×10⁻⁶ cm/s; Papp A→B at 500 µM (MDR1 [10]): 5.81 ± 0.44 ×10⁻⁶ cm/s; Papp B→A at 500 µM (MDR1 [10]): 20.5 ± 2.26 ×10⁻⁶ cm/s; IC50 (MRP2 [11]): 187 µM; Caspase-3 activity, moxifloxacin alone (caspase-3 [12]): slightly elevated; IC50 (MDR1 [13]): 217 µM
7 |  |  |  |  | Ac-DEVD-AMC |  |  |  |  |  |  |  |  |  |  | Km (caspase-3 [14]): 9.7 µM
